Test results taken from patent US6657106B2, “Removal of metals from contaminated substrates by plants” (ISIS Innovation Limited, priority 1995, dated 2003).
“Also recorded” adds a separate entry of the source.

Assays:
A. montanum [1] = conditions: histidine supplied to the root medium of excised roots; earlier symposium report; cited from earlier work
A. montanum [2] = assay: Effect of foliar spraying with histidine on nickel tolerance; type: in vivo, Alyssum montanum; conditions: 20 mM histidine daily foliar spray with 0.01% Tween 20; 0.03 mM NiSO4 in root medium, 23 d; compared with 20 mM glutamine
Procedure: 6. […]. Thus, chelation of nickel by histidine is important both in the detoxification of the metal ion within the plant and in facilitating the transport of the metal from root to shoot, a characteristic of metal-hyperaccumulator plants generally (Baker, A. J. M. and Brooks, R. R. (1989) loc. cit.).
METHODS. Plants were germinated for 7 d on floating nets in 1 mM Ca(NO3)2 solution, subsequently transferred to 1.2-1 culture vessels (10 plants per vessel), and supplied with modified 0.1-strength Hoagland solution containing 0.1 mM KH2PO4, 0.5 mM KNO3, 0.4 mM Ca(NO3)2, 0.2 mM MgSO4, 0.01 mM FeNaEDTA, 0.01 mM H3BO3, 2 μM MnSO4, 0.2 μM ZnSO4, 0.2 μM CuSO4, 0.1 μM Na2MoO4 and 0.02 mM NaCl, supplemented with 0, 0.01, 0.03, 0.1, 0.3, 1, or 3 mM NiSO4. Plants were grown in a glasshouse at night temperatures between 14° C. and 18° C. and day temperatures between 22° C. and 34° C. with supplementary lighting provided by sodium-vapour lamps to give a 16-h photoperiod. Culture solutions were continuously aerated and exchanged every 7 d; solution pH remained in the range 5.6 to 6.0. Plants were harvested after 18 d, rinsed with distilled water, dried at 80° C. for 48 h and weighed. […].
FIG. 4. […] Values of biomass production and root elongation are for nickel-treated plants expressed as percentages of the respective controls grown in the absence of nickel. […]

A. lesbiacum = assay: Effect of histidine in the root medium on xylem-sap exudation and nickel flux of excised roots; type: in vivo, Alyssum lesbiacum; conditions: 0.3 mM NiSO4 with or without 0.3 mM histidine in root medium, 12 h
Source text: FIG. 4. Effect of exogenously applied histidine on nickel tolerance and xylem nickel translocation. a, Effect of foliar spraying with histidine (compared with glutamine) on nickel tolerance of A. montanum, assayed as the effect on whole-plant dry biomass production and root elongation. […]. Values of biomass production and root elongation are for nickel-treated plants expressed as percentages of the respective controls grown in the absence of nickel. […]. Roots of 4-week-old plants were excised and exposed to a root medium of modified Hoagland solution supplemented with either 0.3 mM MgSO4 (controls) or 0.3 mM NiSO4, with or without 0.3 mM added histidine.

A. montanum [3] = assay: as above; type: in vivo, Alyssum montanum; conditions: 0.3 mM NiSO4 with or without 0.3 mM histidine in root medium, exudate collected over 12 h
Source text: 6. […] That is, the application of relatively high concentrations of histidine exogenously is able to increase markedly both the nickel tolerance of an otherwise non-tolerant species of Alyssum (A. montanum) and to cause these plants to translocate nickel out of the root system at much higher rates. Thus, chelation of nickel by histidine is important both in the detoxification of the metal ion within the plant and in facilitating the transport of the metal from root to shoot, a characteristic of metal-hyperaccumulator plants generally (Baker, A. J. M. and Brooks, R. R. (1989) loc. cit.).
FIG. 4. Effect of exogenously applied histidine on nickel tolerance and xylem nickel translocation. a, Effect of foliar spraying with histidine (compared with glutamine) on nickel tolerance of A. montanum, assayed as the effect on whole-plant dry biomass production and root elongation. After germination for 7 d, plants were grown in modified Hoagland solution (FIG. 1) containing either 0 or 0.03 mM NiSO4 for 23 d and were sprayed daily with a solution of either 20 mM glutamine (Ni) or 20 mM histidine (His+Ni), both containing 0.01% (v/v) of the non-ionic detergent Tween 20. Values of biomass production and root elongation are for nickel-treated plants expressed as percentages of the respective controls grown in the absence of nickel. Each bar represents the mean of 9 plants+1 SE. […]

A. montanum [4] = conditions: histidine supplied to the xylem of excised shoots; cited from earlier work

Q: Which “toxicity of nickel (exudation of sap, flux of nickel through the root system)” value (A. montanum [1]) does the source give for N[C@@H](Cc1c[nH]cn1)C(=O)O [histidine] here?
A: apparently reduced the toxicity of nickel

Q: And the “root elongation (inhibitory effect of nickel)” value (A. montanum [2])?
A: halving of the inhibitory effect; also recorded: significantly greater

Q: What about the “whole-plant dry biomass production” value (A. montanum [2]) of the same compound?
A: more than twofold increase; also recorded: significantly greater

Q: What about the nickel flux (A. lesbiacum) of the same compound?
A: no significant differences

Q: And the xylem exudation rate (A. lesbiacum)?
A: no significant differences

Q: What about the “flux of nickel through the xylem” value (A. montanum [3]) of the same compound?
A: greatly increased; also recorded: significantly greater

Q: What about the “rate of xylem-sap exudation” value (A. montanum [3]) of the same compound?
A: moderated the adverse effect of nickel; also recorded: significantly greater

Q: And the toxicity of nickel (A. montanum [4])?
A: apparently reduced the toxicity of nickel
